The values that follow are results of earlier work, collected in patent publication US7709454B2, “Methods and compositions for inhibiting tumorigenesis” (New York University, priority 1997, dated 2010).

The term IC50 denotes the concentration that inhibits the measured activity by half.

Molecules are shown by their SMILES. Where two headings read alike, the source gives them in different places.

The test system of series [1] is Nude mice/colon (DLD-1, HCT 116). Conditions: 2, 5, 10, 40 mg/kg/d; cited from earlier work.
A further series has as its system Pancreas (MIA PaCa-2). The following applies: cited from earlier work.
For a further series, the system named is NIH3T3. The following applies: 2, 5, 10, 40 mg/kg/d; cited from earlier work.
Another series concerns Nude mice/colon (DLD-1). Conditions: 40 mg/kg/d; cited from earlier work.
A further series concerns Nude mice/lung (A549). The following applies: 40 mg/kg/d; cited from earlier work.
Another series concerns Nude mice/lung (HTB177). The following applies: 40 mg/kg/d; cited from earlier work.
The next series relates to Pancreas (AsPC-1). The following applies: 40 mg/kg/d; cited from earlier work.
A further series deals with Pancreas (HPAF-11). The following applies: 40 mg/kg/d; cited from earlier work.
In another series the test system is Pancreas (Hs 700T). The following applies: 40 mg/kg/d; cited from earlier work.
The next series concerns Colon (HCT116). The following applies: 40 mg/kg/d; cited from earlier work.
The next series relates to Prostate (DU-145). Conditions: 40 mg/kg/d; cited from earlier work.
For a further series, the system named is Urinary bladder (EJ). The following applies: 40 mg/kg/d; cited from earlier work.
The subject of series [2] is Wap-H-RAS transgenic Mice/mammary, salivary tumors. Conditions: 2, 5, 10, 40 mg/kg/d; cited from earlier work.
Series [3] concerns Athymic mice/colon (DLD-1), H-Ras and K-Ras Fibroblast tumors. Conditions: 10, 50 mg/kg/d; cited from earlier work.
The conditions of series [4]: cell type not given; cited from earlier work.
Series [5] has as its system MMTV-v-H-RAS transgenic mice/Mammary, salivary Carcinoma. Conditions: cited from earlier work.
Series [6] deals with MMTV-N-RAS^N transgenic Mice/lymphoid and mammary tumors. The following applies: 40 mg/kg/d; cited from earlier work.
The test system of series [7] is MMTV-TGFa/neu transgenic Mice/mammary tumors. The following applies: 40 mg/kg/d; cited from earlier work.

As for `NC(=O)N1CCC(CC(=O)N2CCC([C@H]3c4ncc(Br)cc4CCc4cc(Cl)cc(Br)c43)CC2)CC1` [SCH66336], the “GROWTH INHIBITION” value in [1] was 76%; in the series on Pancreas (MIA PaCa-2) (40 mg/kg/d, MIA PaCa-2) it was 78%; in the series on Pancreas (MIA PaCa-2) (2, 5, 10, 40 mg/kg/d), 75%; with NIH3T3 it was 100%; in the series on Nude mice/colon (DLD-1), 76%; in the series on Nude mice/lung (A549), 70%. The “GROWTH INHIBITION” value with Nude mice/lung (HTB177) is on record as 83%; in the series on Pancreas (AsPC-1), 72%; in the series with Pancreas (HPAF-11) it was 67%; with Pancreas (Hs 700T), 67%; in the series on Colon (HCT116) it was 84%; in the series with Prostate (DU-145), 86%. Also, the “GROWTH INHIBITION” value with Urinary bladder (EJ) is 100%; in series [2], 67%-86%.

On to `O=C(Cc1cc[n+]([O-])cc1)N1CCN(C2c3ccc(Cl)cc3CCc3cc(Br)cnc32)CC1` (centres unmarked) [SCH59228], for which, in [3], the “GROWTH INHIBITION” value was over 90%.

Take `CC[C@H](C)[C@@H](CO[C@@H](Cc1ccccc1)C(=O)N[C@@H](CCS(C)(=O)=O)C(=O)OC(C)C)NC[C@@H](N)CS` [L-744,832]: the IC50 in series [4] is 1 to 10 µM. Moreover, the figures for the “tumor mean growth rate in the presence of the Ftase inhibitor” value in series [5] (10-40 mg/kg/d), in series [6] and in series [7] were −5.4 vs 16.7 mm3/day, −0.7 vs 28.3 mm3/day and −7.4 vs 19 mm3/day, respectively. Also, the tumor response entry in series [5] (mammary and salivary carcinomas in MMTV-v-Ha-Ras mice) is recorded as “induced regression”.
